These results are taken from article PMC10282898 (Organic & Biomolecular Chemistry, 2023).

In one assay the test system is A3 enzymes. Particulars: cited from earlier work.
The next assay concerns the target hCDA (Homo sapiens, UniProt P32320). Nature of the assay: Quantitative evaluation of hCDA inhibitors. The assay is classed as biochemical.

Usually Ki stands for the equilibrium dissociation constant of an inhibitor or competing ligand from its target. The low end stands for tighter binding, the high end for weaker binding.

Sequence of hCDA (P32320 whole entry): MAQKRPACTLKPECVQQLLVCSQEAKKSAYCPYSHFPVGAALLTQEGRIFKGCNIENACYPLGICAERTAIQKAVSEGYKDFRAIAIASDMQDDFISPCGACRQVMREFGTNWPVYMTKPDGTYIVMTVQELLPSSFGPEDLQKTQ

As to `O=C1NC(O)CCN1[C@@H]1O[C@H](CO)[C@@H](O)[C@H]1O` (stereo partly drawn) [THU, tetrahydrouridine], in the assay with A3 enzymes, the “inhibition of A3 enzymes by free nucleosides” value was “did not inhibit”.
Regarding `O=C1NCC=CCN1[C@H]1C[C@H](O)[C@@H](CO)O1` [dDiAzep, 8, 1,3-diazepin-2-one 2′-deoxyriboside], the affinity on hCDA (hCDA 27 nM, dC substrate, pH 7.4, 25 °C, competitive inhibition assumed), expressed as Ki, was 430 ± 80 nM. On hCDA (hCDA, Km of dC over Ki of inhibitor), the Km/Ki stood at 512.
